In PMC12443593, “A live bacteria enzyme assay for identification of human disease mutations and drug screening” (Nature Biomedical Engineering, 2025):

Target: T1, human G6PD (glucose-6-phosphate dehydrogenase) (Homo sapiens, UniProt P11413)
T1 construct: functional as dimer or tetramer
Assay: growth rate of humanized E. coli (LEICA), Hill fit
Type: cell-based
Conditions: live E. coli Δpgi Δzwf expressing human G6PD, M9 glucose, 37 °C, 1% DMSO; growth read-out, no effect on E. coli Δpgi

T1 sequence (P11413 2-515): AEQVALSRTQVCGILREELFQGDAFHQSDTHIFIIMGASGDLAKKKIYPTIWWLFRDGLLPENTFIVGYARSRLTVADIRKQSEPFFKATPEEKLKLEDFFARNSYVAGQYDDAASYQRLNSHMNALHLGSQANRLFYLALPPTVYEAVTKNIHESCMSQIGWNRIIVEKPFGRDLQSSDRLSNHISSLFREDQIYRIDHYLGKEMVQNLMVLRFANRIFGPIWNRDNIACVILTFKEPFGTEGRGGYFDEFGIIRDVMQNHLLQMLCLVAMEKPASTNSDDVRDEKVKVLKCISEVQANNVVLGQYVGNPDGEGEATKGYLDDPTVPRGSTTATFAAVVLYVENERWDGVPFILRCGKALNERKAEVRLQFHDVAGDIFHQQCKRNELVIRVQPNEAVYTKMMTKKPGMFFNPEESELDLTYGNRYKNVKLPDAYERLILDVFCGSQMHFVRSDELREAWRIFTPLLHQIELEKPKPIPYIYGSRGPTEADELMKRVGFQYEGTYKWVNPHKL

IC50: 111 µM
Structure (SMILES): N#Cc1cc(Nc2ncc3c(n2)CCCCC3=O)cs1 [G6PDi-1]
